The subject of experiment [1] is Botrytis cinerae. The experiment can be described thus: Fungicidal activity against cucumber gray mold rot (CGM) disease, control value. The experiment is classed as in vivo. The note with it: 100 ppm; for pest or weed control at 100 ppm: Botrytis, read-out: CGM control value (C.V.). How it is done: Botrytis cinerae, which was isolated from cucumber infected thereby, was inoculated on a potato agar medium (PEC) and cultured under a 12L/12D cycle at 25° C. for 15 days to form spore. The spores were scraped, filtered through a gauze and then suspended in Potato Dextrose broth at a concentration of 1×10^6 spore/ml. The spore suspension was sprayed on a cucumber plant having one leaf. The cucumber plant was held in a humidified room at 20° C. for 3 days. L.A. on a leaf was measured to calculate a C.V.

In experiment [2] the test system is Rhizoctonia solani AG-1. The experiment can be described thus: Fungicidal activity against rice sheath blight (RSB) disease, control value. The note with it: for pest or weed control at 2 ppm / pest or weed control at 10 ppm / pest or weed control at 50 ppm / pest or weed control at 100 ppm: Rhizoctonia solani, AG1, in Oryza sativa, read-out: RSB control value (C.V.); for RSB control value (C.V.): 100 ppm, rice sheath blight.

Experiment [3] deals with Erysiphae graminis. Description: Fungicidal activity against barley powdery mildew (BPM) disease, control value. It is filed as in vivo. The note with it: for pest or weed control at 2 ppm / pest or weed control at 10 ppm / pest or weed control at 50 ppm / pest or weed control at 100 ppm: 168 h, read-out: BPM control value (C.V.).
For experiment [4], the system named is Pyricularia oryzae Carvara KA301. Description: whole plant or invertebrate. The note with it: for pest or weed control at 2 ppm / pest or weed control at 10 ppm / pest or weed control at 50 ppm / pest or weed control at 100 ppm: Pyricularia oryzae, read-out: RCB control value (C.V.); for RCB control value (C.V.): rice blast. It is filed as in vivo.
Experiment [5] has as its system Phytophthora infestans. The experiment can be described thus: whole plant or invertebrate. The experiment is classed as in vivo. The note with it: for pest or weed control at 2 ppm / pest or weed control at 10 ppm / pest or weed control at 50 ppm / pest or weed control at 100 ppm: Phytophthora infestans, in Solanum lycopersicum, read-out: TLB control value (C.V.); for TLB control value (C.V.): tomato late blight.

For experiment [6], the system named is Puccinia recondita. Description: Fungicidal activity against wheat leaf rust (WLR) disease, control value. The note with it: for pest or weed control at 2 ppm / pest or weed control at 10 ppm / pest or weed control at 50 ppm / pest or weed control at 100 ppm: read-out: WLR control value (C.V.). The experiment is classed as in vivo.
The mark [7] stands for this setting: Hordeum vulgare, barley powdery mildew.
Setting [8] is: Hordeum vulgare, 50 ppm, barley powdery mildew.
Where [9] appears, read: Hordeum vulgare, 100 ppm, barley powdery mildew.

This is an account of results in patent publication US8410302B2, “Methoxyimino compounds and fungicide composition comprising same” (Kyung Nong Corporation, priority 2007, dated 2013).

Molecules are shown by their SMILES. Where two headings read alike, the source gives them in different places.

As for `CCOc1cc(C=C(Cl)Cl)ccc1OCc1ccccc1/C(=N\OC)C(=O)NC` [Example 60, (E)-2-(2-((4-(2,2-dichlorovinyl)-2-ethoxyphenoxy)methyl)phenyl)-2-methoxyimino-N-methylacetamide], the pest or weed control at 100 ppm in experiment [1] worked out at 45%; in experiment [2] it was 100%; in experiment [3] (100 ppm), 100%; in experiment [4], 100%; in experiment [5] it was 100%; in experiment [6] (Puccinia recondita, 100 ppm) it was 100%. For the same molecule, the pest or weed control at 2 ppm in experiment [2] was 98%; in experiment [3] it was 95%; in experiment [4], 80%; in experiment [5], 70%; in experiment [6] (Puccinia recondita, 2 ppm), 95%. For the same molecule, the pest or weed control at 10 ppm worked out at 100% in experiment [2]; 98% in experiment [3]; 96% in experiment [4]; 92% in experiment [5]; 100% in experiment [6] (Puccinia recondita, 10 ppm). Further, the pest or weed control at 50 ppm in experiment [2] was 100%; in experiment [3] (50 ppm) it was 100%; in experiment [4] it was 100%; in experiment [5], 95%; in experiment [6] (Puccinia recondita, 50 ppm), 100%.

Turning to `CO/N=C(/C(=O)OC)c1ccccc1COc1ccc(C=C(F)F)cc1` [Example 9, methyl-(E)-2-(2-((4-(2,2-difluorovinyl)phenoxy)methyl)phenyl)-2-methoxyiminoacetate], the pest or weed control at 100 ppm in experiment [1] (cucumber gray mold rot) is 50%; in experiment [2], 10%; in experiment [3] (setting [9]), 100%; in experiment [4], 100%; in experiment [5] it was 100%; in experiment [6] (100 ppm, wheat leaf rust) it was 100%. Further, the pest or weed control at 2 ppm came to 15% in experiment [3] (setting [7]); 100% in experiment [4]; 100% in experiment [5]; 100% in experiment [6] (2 ppm, wheat leaf rust). Further, the pest or weed control at 10 ppm came out at 60% in experiment [3] (setting [7]); 100% in experiment [4]; 100% in experiment [5]; 100% in experiment [6] (10 ppm, wheat leaf rust). For the same molecule, the pest or weed control at 50 ppm is 93% in experiment [3] (setting [8]); 100% in experiment [4]; 100% in experiment [5]; 100% in experiment [6] (50 ppm, wheat leaf rust).

`CNC(=O)/C(=N/OC)c1ccccc1COc1cccc(C=C(F)Cl)c1` [Example 12, (2E)-2-(2-((3-(2-chloro-2-difluorovinyl)phenoxy)methyl)phenyl)-2-methoxyimino-N-methylacetamide]: the “CGM control value (C.V.)” value in experiment [1] (cucumber gray mold rot) turned out to be 40%. In addition, in experiment [2], the “RSB control value (C.V.)” value worked out at 15%. Further, the “BPM control value (C.V.)” value in experiment [3] (100 ppm, barley powdery mildew) is on record as 80%. Further, the figures for the “RCB control value (C.V.)” value in experiment [4] (50 ppm) and in experiment [4] (100 ppm) were 90% and 97%, respectively. Besides, the figures for the “TLB control value (C.V.)” value in experiment [5] (50 ppm) and in experiment [5] (100 ppm) were 55% and 93%, respectively. For the same molecule, in experiment [6] (100 ppm, wheat leaf rust), the “WLR control value (C.V.)” value is reported as 82%.

On to `CNC(=O)/C(=N/OC)c1ccccc1COc1ccc(F)cc1C=C(Br)Br` [Example 80, (E)-2-(2-((2-(2,2-dibromovinyl)-4-fluorophenoxy)methyl)phenyl)-2-methoxyimino-N-methylacetamide], for which the pest or weed control at 100 ppm in experiment [1] was 55%; in experiment [2], 100%; in experiment [3] (100 ppm) it was 100%; in experiment [4], 100%; in experiment [5] it was 100%; in experiment [6] (Puccinia recondita, 100 ppm) it was 100%. Besides, the pest or weed control at 2 ppm in experiment [2] was determined as 65%; in experiment [3], 90%; in experiment [4], 35%; in experiment [5] it was 70%; in experiment [6] (Puccinia recondita, 2 ppm), 95%. For the same molecule, the pest or weed control at 10 ppm was found to be 98% in experiment [2]; 100% in experiment [3]; 90% in experiment [4]; 90% in experiment [5]; 100% in experiment [6] (Puccinia recondita, 10 ppm). Also, the pest or weed control at 50 ppm in experiment [2] came out at 100%; in experiment [3] (50 ppm) it was 100%; in experiment [4], 100%; in experiment [5] it was 98%; in experiment [6] (Puccinia recondita, 50 ppm) it was 100%.

As to `CNC(=O)/C(=N/OC)c1ccccc1CON=C(C)c1cccc(C=C(F)F)c1` [Example 28, (E)-2-[[[[[2-[3-(2,2-difluorovinyl)phenyl](1-methyl)methylidene]amino]oxy]methyl]phenyl]-2-methoxyimino-N-methylacetamide], in experiment [1] (cucumber gray mold rot), the “CGM control value (C.V.)” value stood at 50%. In experiment [2], the “RSB control value (C.V.)” value stood at 35%. Besides, the “BPM control value (C.V.)” value is listed as 60% in experiment [3] (50 ppm, barley powdery mildew) and 90% in experiment [3] (100 ppm, barley powdery mildew). Besides, the “RCB control value (C.V.)” value in experiment [4] (50 ppm) is 70%; in experiment [4] (100 ppm), 95%. Besides, the “TLB control value (C.V.)” value in experiment [5] (100 ppm) turned out to be 60%. Also, the “WLR control value (C.V.)” value in experiment [6] (2 ppm, wheat leaf rust) turned out to be 40%; in experiment [6] (10 ppm, wheat leaf rust) it was 90%; in experiment [6] (50 ppm, wheat leaf rust), 100%; in experiment [6] (100 ppm, wheat leaf rust), 100%.

As to `CO/N=C(/C(=O)OC)c1ccccc1COc1cccc(C=C(Cl)Cl)c1` [Example 1, methyl-(E)-2-(2-((3-(2,2-dichlorovinyl)phenoxy)methyl)phenyl)-2-methoxyiminoacetate], the pest or weed control at 100 ppm came out at 29% in experiment [1] (cucumber gray mold rot); 45% in experiment [2]; 100% in experiment [3] (setting [9]); 100% in experiment [4]; 100% in experiment [5]; 100% in experiment [6] (100 ppm, wheat leaf rust). Besides, the pest or weed control at 2 ppm in experiment [3] (setting [7]) was 100%; in experiment [4] it was 13%; in experiment [5], 80%; in experiment [6] (2 ppm, wheat leaf rust), 98%. The pest or weed control at 10 ppm was 100% in experiment [3] (setting [7]); 50% in experiment [4]; 92% in experiment [5]; 100% in experiment [6] (10 ppm, wheat leaf rust). Also, the pest or weed control at 50 ppm in experiment [3] (setting [8]) came out at 100%; in experiment [4], 92%; in experiment [5], 100%; in experiment [6] (50 ppm, wheat leaf rust) it was 100%.

As to `CNC(=O)/C(=N/OC)c1ccccc1COc1ccc(C=C(Br)Br)cc1Br` [Example 78, (E)-2-(2-((2-bromo-4-(2,2-dibromovinyl)phenoxy)methyl)phenyl)-2-methoxyimino-N-methylacetamide], the pest or weed control at 100 ppm in experiment [1] worked out at 40%; in experiment [2] it was 100%; in experiment [3] (100 ppm), 100%; in experiment [4], 100%; in experiment [5], 100%; in experiment [6] (Puccinia recondita, 100 ppm), 100%. In addition, the pest or weed control at 2 ppm turned out to be 65% in experiment [2]; 90% in experiment [3]; 40% in experiment [4]; 70% in experiment [5]; 95% in experiment [6] (Puccinia recondita, 2 ppm). Besides, the pest or weed control at 10 ppm in experiment [2] came to 98%; in experiment [3] it was 100%; in experiment [4] it was 90%; in experiment [5] it was 90%; in experiment [6] (Puccinia recondita, 10 ppm) it was 98%. The pest or weed control at 50 ppm in experiment [2] came to 100%; in experiment [3] (50 ppm), 100%; in experiment [4], 98%; in experiment [5], 98%; in experiment [6] (Puccinia recondita, 50 ppm) it was 100%.
